7 compounds from patent US20240108617A1, “AN INHALABLE DRY POWDER COMPOSITION FOR PULMONARY DISEASES” (GLENMARK SPECIALTY S.A., priority 2019, published 2024) can be followed below.

Data set [1] in a line: Particle size distribution, Malvern Mastersizer 2000S, wet dispersion. Type of data set: physicochemical. As to conditions: PSD retested results. As to the method: The particle size distribution studies were performed using Malvern Mastersizer 2000S using wet dispersion method. A sample of about […] of compound (I) was transferred in a beaker, and 2-3 drops of nonidet P-40 and 4-5 drops of water were added to the sample in beaker, and 25-30 ml of water was added and sonicated for 180 seconds with continuous stirring, and the dispersion/solution of compound (I) was added in sample handling unit of Hydro 20000S. The particle size measurement was done using Malvern Mastersizer 2000S.

Data set [2] in a line: Compatibility with inhalation grades of lactose monohydrate. The data set is classed as physicochemical. As to conditions: Respitose ML006, Respitose SV010, Lactohale 201, Lactohale 200, Inhalac 230, Inhalac 70. The text has this:
It was observed that compound (I) is compatible with different commercially available inhalation grades of lactose monohydrate including Respitose ML006, Respitose SV010, Lactohale 201, Lactohale 200, Inhalac 230, Inhalac 70. Lactose Monohydrate is selected as a diluent for compound (I) (micronized) with the particle size d90 of ≤5 microns.

Data set [3] relates to IL-17. Briefly: Ex-vivo IL-17 inhibition from bronchoalveolar lavage (BAL) cells from COPD patients. The data set is classed as cell-based, human. As to conditions: for IC50: stimulated BAL cells from COPD patients, read-out: IC50, IL-17 release. The method, then:
The test compound was prepared by 10 mM stock of Compound (I) was prepared in 100% DMSO. The saline was prepared by 0.85 gm of NaCl weighted and dissolved in 100 mL distilled water and adjusted the pH 7.0 to pH 7.4. It was then filter sterilized.
Flexible fiber optic bronchoscopy was performed after valid consent and lignocaine nebulization. Patient was given 2 mg of IV midazolam and monitored under pulse oximetry and cardiac monitor. BAL fluid was collected with repeated aspirations of saline preferably from middle lobe.
BALF was passed through cell strainer to remove debris and mucus. BAL cells were isolated from BALf by centrifugation at 800 rpm for 10 min.
BAL cells were seeded at a density of 1×10^5 cells-2×10^5 cells/well in a 96 well plate coated with Anti-human CD3 antibody (10 μg/mL) and anti-human CD2 antibody (2 μg/mL). The plate was shaken gently and cells incubated for 5-10 minutes in an incubator with 37° C. and 5% CO2 to acclimatize. • 1. Cells were pre-incubated for 60 minutes at 37° C. with serial dilutions of Compound (I). This was followed by the addition of Anti-human CD28 antibody (2 μg/mL). • 2. Cells were incubated for 48-72 h in the incubator at 37° C. with 5% CO2. • 3. The plates were spun at 1200 rpm at 4° C. for 12 minutes, supernatant collected and used for IL17 estimation by ELISA.
(§1) Calculations: IL17 cytokine concentration in the supernatant was determined using linear regression from the standard graph and subsequently multiplied with respective dilution factors. Fold response (FR) was calculated as pg/ml of hIL17 in sample (treated) wells over pg/ml of hIL17 in Basal wells.
Percent Inhibition for each set treated with test compound was calculated by using the formula Percent Inhibition={100−(pg/mL of test compound/pg/mL of induced×100)} and IC50 values were calculated from concentration response curves by nonlinear regression analysis using GraphPad Prism software.

For data set [4], the system named is IL-17. The experiment in a line: Ex-vivo IL-17 inhibition from peripheral blood (whole blood) from COPD patients. As to conditions: Homo sapiens. Type of data set: cell-based. As to the method: • 1. ˜8 mL whole blood was collected per patient. • 2. Human whole blood was diluted 1:1 with 0.85% NaCl. • 3. Diluted blood was loaded on a 96 well plate. Blood was pre-incubated for 60 minutes at 37° C. with serial dilutions of Compound (I). • 4. It was then transferred to 96 well plate coated with Anti-human CD3 antibody (final concentration—10 μg/mL). This was followed by the addition of Anti-human CD28 antibody (2 μg/mL). • 5. Cells were incubated for 48 h in the incubator at 37° C. with 5% CO2. The plates were spun at 1200 rpm at 4° C. for 12 minutes, supernatant collected and used for IL17 estimation by ELISA.
as §1
Percent Inhibition for each set treated with test compound was calculated by using the formula
Percent Inhibition={100−(pg/mL of test compound/pg/mL of induced×100)}
IC50 values were calculated from concentration response curves by nonlinear regression analysis using GraphPad Prism software.

Where [5] appears, read: particle size data during initial development, listed as C.
[6] abbreviates: particle size data during initial development, listed as A.
The mark [7] stands for this setting: particle size data during intermediate development, listed as D.
The mark [8] stands for this setting: particle size data during intermediate development, listed as E.
[9] abbreviates: particle size data during intermediate development, listed as F.
The mark [10] stands for this setting: particle size data during initial development, listed as B.

A value given as a limit tells only on which side of the number the result lay.

In data set [1] (setting [5]), `CCc1ccccc1-c1nccnc1-c1ccc(NC(=O)Cc2ccc(C(F)(F)[C@@H](C)O)cc2)cc1` [API Batch C] showed a d10 of 1.128 μm, a d50 of 2.010 μm and a d90 of 3.783 μm.

In data set [1] (setting [6]), `CCc1ccccc1-c1nccnc1-c1ccc(NC(=O)Cc2ccc(C(F)(F)[C@@H](C)O)cc2)cc1` [API Batch A] displayed a d10 of 1.222 μm, a d50 of 2.064 μm and a d90 of 3.664 μm.

As for `CCc1ccccc1-c1nccnc1-c1ccc(NC(=O)Cc2ccc(C(F)(F)[C@@H](C)O)cc2)cc1` [API Batch D], in data set [1] (setting [7]), the d10 stood at 0.110 microns, the d50 turned out to be 1.510 microns and the d90 is on record as 3.638 microns.

In data set [1] (setting [8]), `CCc1ccccc1-c1nccnc1-c1ccc(NC(=O)Cc2ccc(C(F)(F)[C@@H](C)O)cc2)cc1` [API Batch E] yielded a d10 of 1.376 microns, a d50 of 2.591 microns and a d90 of 5.060 microns.

Usually IC50 stands for the concentration needed to halve the response being measured. The inhibition is the relative decrease from the control value, in per cent. For the compound `CCc1ccccc1-c1nccnc1-c1ccc(NC(=O)Cc2ccc(C(F)(F)C(C)O)cc2)cc1` (stereo in doubt) [Compound (I), 2-{4-[(2S)-1,1-difluoro-2-hydroxypropyl]phenyl}-N-{4-[3-(2-ethylphenyl)pyrazine-2-yl]phenyl}acetamide], the “compatibility with commercially available inhalation grades of lactose monohydrate” value in data set [2] is given as “compatible”. The “inhibition of IL17 release” value in the data set with IL-17 [3] (BAL cells, at an ICmax concentration of 1-3 microns) is recorded as greater than 70%. For the same compound, the IC50 in the data set on IL-17 [3] (Homo sapiens) is 143 nM; in the data set with IL-17 [3], 143 nM; in the data set on IL-17 [4] (stimulated whole blood from COPD patients, read-out: IC50, IL17 release) it was 282 nM. The inhibition at 0.0001 µM with IL-17 [3] (Homo sapiens, COPD-BAL cells, 0.1 nM) was found to be 4.97%; in the data set on IL-17 [4] (Whole Blood, 0.1 nM, read-out: IL17 A (% Inhibition)) it was 0.27%. For the same compound, the inhibition at 0.001 µM was 2.39% with IL-17 [3] (Homo sapiens, COPD-BAL cells, 1 nM) and 5.57% with IL-17 [4] (Whole Blood, 1 nM, read-out: IL17 A (% Inhibition)). Moreover, the inhibition at 0.003 µM in the data set on IL-17 [3] (Homo sapiens, COPD-BAL cells, 3 nM) was 10.9%; with IL-17 [4] (Whole Blood, 3 nM, read-out: IL17 A (% Inhibition)), 14.9%. The inhibition at 0.01 µM in the data set with IL-17 [3] (Homo sapiens, COPD-BAL cells, 10 nM) was 13.9%; in the data set with IL-17 [4] (Whole Blood, 10 nM, read-out: IL17 A (% Inhibition)), 15.1%. Moreover, the inhibition at 0.03 µM in the data set with IL-17 [3] (Homo sapiens, COPD-BAL cells, 30 nM) is 18.7%; in the data set with IL-17 [4] (Whole Blood, 30 nM, read-out: IL17 A (% Inhibition)), 27.6%. Also, the inhibition at 0.1 µM with IL-17 [3] (Homo sapiens, COPD-BAL cells, 100 nM) was 41.4%; in the data set on IL-17 [4] (Whole Blood, 100 nM, read-out: IL17 A (% Inhibition)) it was 36.8%. The inhibition at 0.3 µM was 66.8% in the data set on IL-17 [3] (Homo sapiens, COPD-BAL cells, 300 nM) and 43.4% in the data set with IL-17 [4] (Whole Blood, 300 nM, read-out: IL17 A (% Inhibition)). Further, the inhibition at 1 µM amounted to 71.1% in the data set with IL-17 [3] (Homo sapiens, COPD-BAL cells, 1 μM) and 56.9% with IL-17 [4] (Whole Blood, 1 uM, read-out: IL17 A (% Inhibition)). Besides, the inhibition at 3 µM came to 76.7% with IL-17 [3] (Homo sapiens, COPD-BAL cells, 3 μM) and 65% in the data set on IL-17 [4] (Whole Blood, 3 μM, read-out: IL17 A (% Inhibition)). For the same compound, the inhibition at 6 µM in the data set on IL-17 [3] (Homo sapiens, COPD-BAL cells, 6 μM) amounted to 78.8%; in the data set on IL-17 [4] (Whole Blood, 6 μM, read-out: IL17 A (% Inhibition)) it was 69.2%. Besides, the inhibition at 10 µM in the data set with IL-17 [3] (Homo sapiens, COPD-BAL cells, 10 μM) turned out to be 81.1%; with IL-17 [4] (Whole Blood, 10 μM, read-out: IL17 A (% Inhibition)), 76.2%. Further, the inhibition at 20 µM in the data set with IL-17 [4] (Whole Blood, 20 μM, read-out: IL17 A (% Inhibition)) came to 78.8%.

`CCc1ccccc1-c1nccnc1-c1ccc(NC(=O)Cc2ccc(C(F)(F)[C@@H](C)O)cc2)cc1` [API Batch F]: in data set [1] (setting [9]), the d10 was determined as 1.244 microns, the d50 is given as 2.383 microns and the d90 was 4.752 microns.

In data set [1] (setting [10]), `CCc1ccccc1-c1nccnc1-c1ccc(NC(=O)Cc2ccc(C(F)(F)[C@@H](C)O)cc2)cc1` [API Batch B] returned a d10 of 0.106 μm, a d50 of 1.376 μm and a d90 of 3.278 μm.
